Source: patent US12503446B2, “Bromodomain inhibitors” (FORSCHUNGSZENTRUM JÜLICH GMBH, priority 2019, dated 2025)

What was measured:
[1] = test system: mononuclear cells from MPN patients (JAK2V617F-positive); assay: CFU assay, MPN patients (PV, PMF, ET); type: cell-based, human
Description: With the aid of the CFU assay, it is possible to determine the colony-forming capacity of individual cells in a semisolid methylcellulose medium (MethoCult H4434, StemCell Technologies, Cologne, Germany). The number of colonies was determined after 7-11 days.
PBMCs from PV, ET or PMF patients: 4×10^5 cells/ml
Individual cells in the CFU assay form cell colonies in culture after 12 days, unless the formation thereof is prevented by inhibitors.
Myeloproliferative neoplasia includes three conventional Philadelphia chromosome-negative (BCR-ABL-negative) disease entities: polycythemia vera (PV), essential thrombocythaemia (ET) and primary myelofibrosis (PMF). Both PV and ET can progress to become myelofibrosis (MF), which usually means a fatal deterioration in the disease state and in the success of treatment. All the MPN patients involved in these studies were JAK2V617F-positive.

AML cell line Molm-14 = assay: MTT assay, metabolic activity of Molm-14 cells; type: cell-based; conditions: 1 μM, 72 h, DMSO control set to 100%
Description: (§1) All studies with the HEL, Molm-14 and K562 cell lines mentioned (sourced from DSMZ: ACC-11, ACC-10 and ACC-777) were conducted under germ-free conditions under a sterile hood. Incubation was effected at 37° C. in an incubator at a CO2 saturation of 5%. For the passage of the suspension cells, the cells were transferred in a Falcon prefilled with PBS (phosphate buffered saline) and centrifuged at 1200 rpm for 5 min. All three cell lines were cultured in RPMI-1640 medium (Gibco, Thermo Fischer Scientific, Darmstadt, Germany) with 10% FCS and 1% penicillin streptomycin.
(§2) The viability and metabolic activity of the cells were measured by the MTT assay. Yellow, water-soluble MTT (3-([…])-2,5-diphenyltetrazolium bromide) is a tetrazolium salt which is reduced to dark blue formazan in living cells. Insoluble formazan is released by addition of isopropanol-HCl, and its intensity can be determined by photometry at a wavelength of 550 nm. Thus, the proportion of living cells is measured by comparison with a particular control sample. The cells were counted and washed with PBS, and 30 000 cells per well were sown in triplicates in a 96-well plate. For the inhibitor treatment, the stated final concentrations were used. For this purpose, 10 µl of the appropriate inhibitor dilution was introduced into the 96-well plates, and then 90 μl of cell suspension was pipetted in. The plates were incubated in an incubator for 72 h (37° C., 5% CO2). After the incubation, 10 μl of MTT solution (5 mg/ml) was applied to the wells with a multichannel pipette and thoroughly resuspended. This was followed by incubation for 4 h in the dark at room temperature. Subsequently, the cells were resuspended in 100 μl of isopropanol-HCl and lysed, and absorption at a wavelength of 550 nm was measured by photometry with a plate reader (Kayto, RT-2100C).
The erythroleukaemia cell line HEL (JAK2V617F-positive), the AML cell line Molm-14 and the chronic myeloid leukaemia (CML) cell line K562 (BCR-ABL-positive) were used for cell experiments.
Compounds MF1-R, MF1-S, JHS1-R and JHS1-S were dissolved in DMSO, and each was used in concentrations of 0.1 μM, 1 μM, 10 μM and 20 μM. Correspondingly, DMSO was included in each case as a control treatment, and the metabolic activity thereof was set to 100%. The HEL, Molm-14 and K562 cell lines were treated with the respective compounds in the different concentrations and, after 72 h in culture, the metabolic activity, which gives information about the growth of the cells, was determined by means of MTT [3-(4,5-dimethylthiazol-2-yl)-2,5-diphenyltetrazolium bromide] assay.

[2] = test system: PARP1 cleavage in Molm-14 cells; assay: PARP1 cleavage Western blot (apoptosis), Molm-14; type: cell-based; conditions: 5 μM
Description: Cell lysates were produced with RIPA lysis buffer (50 mM Tris pH 7.4, 150 mM sodium chloride, 1 mM EDTA, 1% Triton-X, 15% glycerol, 0.5% sodium deoxycholate, and protease/phosphatase inhibitors). Protein concentrations were determined by the Bradford Protein Assay using a Nanodrop Spectrometer (NanoDrop 2000/2000c system, Thermo Fisher Scientific, Darmstadt, Germany) at 595 nm. To 25 μg of protein lysates was added 4xLämmli sample buffer, followed by denaturing at 65° C. for 5 min and introduction into the SDS-Page. The proteins were transferred by the wet blot method in Towbin buffer (3 g Tris, 14.4 g glycine, 5% methanol per litre of ddH2O) to a PVDF membrane at 100 mA overnight. The membrane was blocked with 10% BSA in TBS-T buffer (20 mM Tris-HCl, pH 7.6, 137 mM NaCl, 0.05% IGEPAL). The primary antibodies were incubated at 4° C. overnight, and the HRP-labelled antibodies at room temperature with the membrane for […]. The proteins were detected by means of PCA-ECL solution using a chemiluminescence detector (Fusion SL, PeqLab).
In addition, a possible induction of apoptosis in the cell lines described by compound MF2 was examined. […] The cleavage of the PARP1 protein is an indicator of incipient apoptosis (cell death) of the cells, and the cleavage products of PARP1 were accordingly examined by Western blot. In detail, after the inhibitor treatment, cell lysates were produced with RIPA lysis buffer. Protein concentrations were determined with the Bradford protein assay using a Nanodrop Spectrometer at 595 nm. To 25 μg of the protein lysates was added 4×Lämmli sample buffer, followed by denaturing at 65° C. for 5 min and introduction into the SDS-Page. The proteins were transferred by the wet blot method to a PVDF membrane at 100 mA overnight. The membrane was blocked with 10% BSA in TBS-T buffer. The primary antibodies were incubated at 4° C. overnight, and the HRP-labelled antibodies at room temperature with the membrane for 45 min. The proteins were detected by means of PCA-ECL solution using a chemiluminescence detector (Fusion SL, PeqLab). […]

HEL cells = assay: Viability from trypan blue staining, HEL; type: cell-based; conditions: 5 μM, compared to PFI-1
Description: Cell count and viability was determined after trypan blue staining. The appropriate concentrations of the inhibitors per ml of medium were added, or the correspondingly highest volume of DMSO was added as control group.
During the study of cell proliferation, the viability of the cell lines was likewise determined from the trypan blue staining. Trypan blue cannot penetrate into living cells.

[3] = test system: haematopoietic cell lines, erythroleukaemia and AML cell lines; assay: Inhibitory activity in haematopoietic cell lines (summary statements); type: cell-based
Description: as §1, §2

Compound: CN1Cc2cc(N=[S@@](C)(=O)c3ccccc3)ccc2NC1=O [MF2-S, (S)—N-(3-methyl-2-oxo-1,2,3,4-tetrahydroquinazolin-6-yl)-S-methyl-S-phenylsulfoximine]
- colony count, PMF patient ([1]; 1 μM): very efficiently reduced the colony count
- colony count, MPN patients ([1]; 5 μM, compared to PFI-1): significantly greater reduction in each case in the colony count
- metabolic activity of Molm-14 cells (AML cell line Molm-14): 55.19%±0.72
- uncleaved PARP1, Molm-14 ([2]; 48 h): less uncleaved PARP1 was apparent
- band for the PARP1 cleavage product, Molm-14 ([2]; 48 h, compared to PFI-1): same intensity
- induction of apoptosis, Molm-14 ([2]; compared to MF2, MF2-R, PFI-1): induced apoptosis more strongly than the other compounds examined
- viability of HEL cells (HEL cells): significantly reduced the viability
- inhibitory activity in haematopoietic / leukaemia cell lines (in words) [3]: excellent inhibition of the cell proliferation
